Patent publication US20260274832A1, “COMPOUNDS AND THEIR USE IN TREATING CANCER” (ASTRAZENECA AB, priority 2023, published 2026)

How the values were obtained:
[1] = target: T1, AR (AR-full length) in LNCaP cells (Homo sapiens, UniProt P10275, T878A); assay: LNCaP Androgen Receptor Imaging Assay (immunofluorescence of endogenous nuclear AR); type: cell-based; settings: 24 h incubation; for DC50: concentration giving 50% of maximum degradation of AR per curve fit, single experiment or average of two or more; for LNCaP AR Degradation Dmax / Dmax: maximum degradation observed, normalized as % of positive control (prior art AR PROTAC at 3 μM); for Dmax: LNCaP
T1 construct: the prostate cancer cell line LNCaP (expressing AR-full length); endogenous in cells; host or cells: LNCaP
Procedure: This cell-based imaging assay uses immuno-fluorescence to measure endogenous nuclear AR staining in the prostate cancer cell line LNCaP (expressing AR-full length). The purpose of the assay is to identify compounds that regulate AR protein level according to the protocol laid out in the steps below.
(§1) All work was performed in a sterile tissue culture hood up to the point of cell fixation. LNCaP cells were cultured at 6-8×10^6 per T175 flask and split every 3-4 days. Medium: RPMI (R7638, VWR Sigma) containing 10% FCS and 1% glutamine. Cells were plated in black wall transparent bottom plates at a density of 12,000 cells (Cedex™ Cell counter, Beckmann & Coulter), 40 μL per well, using a Multidrop (ThermoFisher).
(§2) Cells were dosed with test compound diluted in DMSO using an Echo 555/655™ (Labcyte) and the final concentration of DMSO in the well was 0.3%. A neutral control (DMSO) and a positive AR degrader control at 3 μM (a prior art AR PROTAC) were included. The Echo uses acoustic technology to perform direct microplate-to-microplate transfers of DMSO compound solutions to assay plates. The system can be programmed to transfer volumes as low as 2.5 nL in multiple increments between microplates and in so doing generates a serial dilution of compound in the assay plate which is then back-filled to normalise the DMSO concentration across the dilution range. Compounds were dispensed as a 12 point dose response with indicated concentrations. The plates were incubated at 37° C./5% CO2 for 24 h and then fixed and stained as below. 40 μL of 8% paraformaldehyde solution (v/v) in phosphate buffered saline (PBS) was added on top of the media already in the well using a Multidrop to fix plates giving a final concentration of 4% PFA (v/v) for 20-30 minutes (keep in fume hood to minimise PFA exposure). After 20-30 mins, the plates were washed with 3×PBS using a BioTek washer in a fume hood. A shake out of remaining volume in the well was performed to ensure best removal of remaining PBS. At this plates could be stored in PBS after washing for at least 3 days at 4° C., if so, PBS was removed by the BioTek before continuing with the next step.
(§3) The cells were incubated with a Mouse monoclonal Anti-AR antibody AR441 (DAKO M3562) (1:1000), diluted in modified blocking buffer (PBS+1% BSA+0.1% TritonX); 15 μL/well for 2 h at RT. The plates were then washed with 3×PBS using a BioTek washer. A shake out of remaining volume in the well was performed to ensure best removal of remaining PBS. Cells were then incubated with Goat anti-mouse secondary antibody 488 (Invitrogen A11001) (1:500) and nuclear stain, DRAQ5 (Abcam Ab108410) (1:2000) diluted in modified blocking buffer for 45 mins at room temperature 15 μL/well. Plates are then washed with 3×PBS using a BioTek washer, without final aspiration, and sealed with black plate seals. Plates could be stored after staining for three days at 4° C. before read if required.
(§4) Plates are read using a Cellomics Cellinsight to measure the Androgen Receptor level in each well. The data is exported into Genedata to perform curve fitting analysis. All data are normalized as % of positive control and the BellFit method automatically determines the correct fit method based on the presence of hook effect, choosing the BellFit when there is a hook and HillFit when there is no hook. Down-regulation of AR is expressed as a DC50 value and determined by calculation of the concentration of compound that is required to give 50% of maximum degradation of AR as per the curve fit for that compound. The maximum degradation observed for each compound is expressed as Dmax. The AR degradation data for compounds is shown in the table below and may be a result from a single experiment or an average of two or more experiments.

[2] = target: T2, AR (L702H) in LNCaP cells (Homo sapiens, UniProt P10275, L702H/T878A); assay: LNCaP Androgen Receptor L702H Imaging Assay (LNCaP cells engineered by CRISPR/Cas9); type: cell-based; settings: LNCaP cells with AR L702H mutation, 24 h incubation; for DC50: concentration giving 50% of maximum degradation of AR (L702H) per curve fit; for LNCaP AR (L702H) Degradation Dmax / Dmax: maximum degradation observed, normalized as % of positive control; for Dmax: LNCaP
T2 construct: engineered to introduce the mutation L702H into the AR gene using CRISPR/Cas9; endogenous in cells; host or cells: LNCaP cells edited by CRISPR/Cas9 at the AR gene
Procedure: as §1, §2, §3, §4
At this stage, anti-androgen therapy is largely ineffective due to AR amplification, overexpression or point mutation. One of the point mutations observed in patient populations is L702H in the AR Ligand Binding Domain. LNCAP cells have been engineered to introduce the mutation L702H into the AR gene using CRISPR/Cas9. The previously described imaging-based AR assay will monitor nuclear AR (L702H) levels in these cells to identify compounds that regulate AR (L702H). […]

T1 sequence (P10275 whole entry T878A): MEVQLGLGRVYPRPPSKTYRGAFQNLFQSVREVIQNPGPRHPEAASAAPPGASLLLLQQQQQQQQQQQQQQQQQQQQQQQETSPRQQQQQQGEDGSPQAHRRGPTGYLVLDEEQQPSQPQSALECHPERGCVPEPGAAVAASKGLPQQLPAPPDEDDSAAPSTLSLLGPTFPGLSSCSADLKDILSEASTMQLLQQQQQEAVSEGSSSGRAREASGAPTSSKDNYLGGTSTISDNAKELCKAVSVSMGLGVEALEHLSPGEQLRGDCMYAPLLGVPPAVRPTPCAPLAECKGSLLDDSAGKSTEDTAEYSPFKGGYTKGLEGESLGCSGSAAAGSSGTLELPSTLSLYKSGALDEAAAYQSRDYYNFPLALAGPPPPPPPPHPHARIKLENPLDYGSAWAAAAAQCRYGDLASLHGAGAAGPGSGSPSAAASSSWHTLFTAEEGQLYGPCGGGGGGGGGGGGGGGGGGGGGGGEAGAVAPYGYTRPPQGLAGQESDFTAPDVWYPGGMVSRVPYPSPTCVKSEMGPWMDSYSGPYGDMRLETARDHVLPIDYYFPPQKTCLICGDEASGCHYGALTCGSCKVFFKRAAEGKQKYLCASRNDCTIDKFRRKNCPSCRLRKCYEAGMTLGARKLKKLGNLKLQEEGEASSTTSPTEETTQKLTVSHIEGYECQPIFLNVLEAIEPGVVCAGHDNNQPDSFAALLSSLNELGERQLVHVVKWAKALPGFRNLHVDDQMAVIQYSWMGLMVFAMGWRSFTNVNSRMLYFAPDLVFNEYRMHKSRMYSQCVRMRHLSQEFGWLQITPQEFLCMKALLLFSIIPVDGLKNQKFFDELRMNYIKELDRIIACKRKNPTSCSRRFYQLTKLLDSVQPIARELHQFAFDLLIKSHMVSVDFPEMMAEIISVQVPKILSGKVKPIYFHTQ
T1 sequence (Q96SW2 whole entry partner): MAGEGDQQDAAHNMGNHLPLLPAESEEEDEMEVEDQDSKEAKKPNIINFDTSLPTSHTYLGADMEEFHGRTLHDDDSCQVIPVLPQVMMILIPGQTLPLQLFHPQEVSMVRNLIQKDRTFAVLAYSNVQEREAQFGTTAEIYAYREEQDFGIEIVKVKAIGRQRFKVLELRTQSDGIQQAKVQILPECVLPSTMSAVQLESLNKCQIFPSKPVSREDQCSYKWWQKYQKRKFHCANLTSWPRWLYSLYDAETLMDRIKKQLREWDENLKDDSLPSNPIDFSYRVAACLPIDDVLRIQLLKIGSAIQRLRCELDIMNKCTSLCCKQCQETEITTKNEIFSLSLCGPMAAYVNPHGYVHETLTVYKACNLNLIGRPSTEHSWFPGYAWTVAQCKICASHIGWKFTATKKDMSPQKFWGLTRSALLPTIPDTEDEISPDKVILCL
T2 sequence (P10275 whole entry L702H/T878A): as the sequence (P10275 whole entry T878A) above, with L702H counted along it
T2 sequence (Q96SW2 whole entry partner): as the sequence (Q96SW2 whole entry partner) above

Structure (SMILES) | DC50 [1] [nM] | LNCaP AR Degradation Dmax [1] [%] | DC50 [2] [nM] | LNCaP AR (L702H) Degradation Dmax [2] [%] | Dmax [1] [%] | Dmax [2] [%]
COc1nc(N2CCN(CC3CCN(c4ccc([C@@H]5CCCN(c6ccc(Cl)c7c(C#N)c[nH]c67)C5)cc4)CC3)CC2)cc2c1C(=O)N(C1CCC(=O)NC1=O)C2 (single isomer, unassigned) [Example 40, 4-Chloro-7-[(3S)-3-(4-{4-[(4-{2-[(3S*)-2,6-dioxopiperidin-3-yl]-4-methoxy-3-oxo-2,3-dihydro-1H-pyrrolo[3,4-c]pyridin-6-yl}piperazin-1-yl)methyl]piperidin-1-yl}phenyl)piperidin-1-yl]-1H-indole-3-carbonitrile] | 7 | 105 | 12 | 106 | – | –
N#Cc1c[nH]c2c(N3CCCC(c4ccc(N5CCC(CN6CCC(n7ccc8c(N9CCC(=O)NC9=O)cccc87)CC6)CC5)cn4)C3)ccc(Cl)c12 (single isomer, unassigned) [Example 65, 4-Chloro-7-[(3R*)-3-{5-[4-({4-[4-(2,4-dioxo-1,3-diazinan-1-yl)-1H-indol-1-yl]piperidin-1-yl}methyl)piperidin-1-yl]pyridin-2-yl}piperidin-1-yl]-1H-indole-3-carbonitrile] | 9 | – | 798 | – | 96 | 78
N#Cc1c[nH]c2c(N3CCCC(c4ccc(N5CCC(CN6CCC(n7ccc8c(N9CCC(=O)NC9=O)cccc87)CC6)CC5)cn4)C3)ccc(Cl)c12 (single isomer, unassigned) [Example 66, 4-Chloro-7-[(3S*)-3-{5-[4-({4-[4-(2,4-dioxo-1,3-diazinan-1-yl)-1H-indol-1-yl]piperidin-1-yl}methyl)piperidin-1-yl]pyridin-2-yl}piperidin-1-yl]-1H-indole-3-carbonitrile] | 10 | 97 | 22 | 94 | – | –
Cc1ccc(C2CCCN(c3ccc(OCCCCN4CCN(c5ccc6c(c5)CN(C5CCC(=O)NC5=O)C6=O)CC4)cc3)C2)c2[nH]cc(C#N)c12 (single isomer, unassigned) [Example 78, 7-{(3R*)-1-[4-(4-{4-[2-(2,6-dioxopiperidin-3-yl)-1-oxo-2,3-dihydro-1H-isoindol-5-yl]piperazin-1-yl}butoxy)phenyl]piperidin-3-yl}-4-methyl-1H-indole-3-carbonitrile] | 1370 | 70 | 3100 | 100 | – | –
Cc1ccc(C2CCCN(c3ccc(OCCCCN4CCN(c5ccc6c(c5)CN(C5CCC(=O)NC5=O)C6=O)CC4)cc3)C2)c2[nH]cc(C#N)c12 (single isomer, unassigned) [Example 79, 7-{(3S*)-1-[4-(4-{4-[2-(2,6-dioxopiperidin-3-yl)-1-oxo-2,3-dihydro-1H-isoindol-5-yl]piperazin-1-yl}butoxy)phenyl]piperidin-3-yl}-4-methyl-1H-indole-3-carbonitrile] | 9 | 92 | 21 | 79 | – | –
Cc1ccc(C2CCCN(c3cccc(OCCCCN4CCN(c5ccc6c(c5)CN(C5CCC(=O)NC5=O)C6=O)CC4)c3)C2)c2[nH]cc(C#N)c12 (single isomer, unassigned) [Example 80, 7-{(3R*)-1-[3-(4-{4-[2-(2,6-dioxopiperidin-3-yl)-1-oxo-2,3-dihydro-1H-isoindol-5-yl]piperazin-1-yl}butoxy)phenyl]piperidin-3-yl}-4-methyl-1H-indole-3-carbonitrile] | 38 | – | 3100 | – | 64 | 100
Cc1ccc(C2CCCN(c3cccc(OCCCCN4CCN(c5ccc6c(c5)CN(C5CCC(=O)NC5=O)C6=O)CC4)c3)C2)c2[nH]cc(C#N)c12 (single isomer, unassigned) [Example 81, 7-{(3S*)-1-[3-(4-{4-[2-(2,6-dioxopiperidin-3-yl)-1-oxo-2,3-dihydro-1H-isoindol-5-yl]piperazin-1-yl}butoxy)phenyl]piperidin-3-yl}-4-methyl-1H-indole-3-carbonitrile] | > 3000 | – | 3100 | 100 | – | –
Cc1ccc(C2CCCN(c3ccc(N4CCC(CN5CCN(c6ccc7c(c6)CN(C6CCC(=O)NC6=O)C7=O)CC5)CC4)cc3)C2)c2[nH]cc(C#N)c12 (single isomer, unassigned) [Example 82, 7-[(3R*)-1-{4-[4-({4-[2-(2,6-dioxopiperidin-3-yl)-1-oxo-2,3-dihydro-1H-isoindol-5-yl]piperazin-1-yl}methyl)piperidin-1-yl]phenyl}piperidin-3-yl]-4-methyl-1H-indole-3-carbonitrile] | 31 | – | 22 | – | 90 | 91
Cc1ccc(C2CCCN(c3ccc(N4CCC(CN5CCN(c6ccc7c(c6)CN(C6CCC(=O)NC6=O)C7=O)CC5)CC4)cc3)C2)c2[nH]cc(C#N)c12 (single isomer, unassigned) [Example 83, 7-[(3S*)-1-{4-[4-({4-[2-(2,6-dioxopiperidin-3-yl)-1-oxo-2,3-dihydro-1H-isoindol-5-yl]piperazin-1-yl}methyl)piperidin-1-yl]phenyl}piperidin-3-yl]-4-methyl-1H-indole-3-carbonitrile] | 3100 | 100 | > 3000 | – | – | –
COc1nc(N2CCN(CC3CCN(c4ccc(N5CCCC(c6ccc(Cl)c7c(C#N)c[nH]c67)C5)cc4)CC3)CC2)cc2c1C(=O)N(C1CCC(=O)NC1=O)C2 (single isomer, unassigned) [Example 91, 4-Chloro-7-[(3R*)-1-{4-[4-({4-[2-(2,6-dioxopiperidin-3-yl)-4-methoxy-3-oxo-2,3-dihydro-1H-pyrrolo[3,4-c]pyridin-6-yl]piperazin-1-yl}methyl)piperidin-1-yl]phenyl}piperidin-3-yl]-1H-indole-3-carbonitrile] | 23 | – | 10 | – | 100 | 99
COc1nc(N2CCN(CC3CCN(c4ccc(N5CCCC(c6ccc(Cl)c7c(C#N)c[nH]c67)C5)cc4)CC3)CC2)cc2c1C(=O)N(C1CCC(=O)NC1=O)C2 (single isomer, unassigned) [Example 92, 4-Chloro-7-[(3S*)-1-{4-[4-({4-[2-(2,6-dioxopiperidin-3-yl)-4-methoxy-3-oxo-2,3-dihydro-1H-pyrrolo[3,4-c]pyridin-6-yl]piperazin-1-yl}methyl)piperidin-1-yl]phenyl}piperidin-3-yl]-1H-indole-3-carbonitrile] | – | 100 | – | 100 | – | –
